Measurements as given in US20250298027A1, “METHOD OF EVALUATING SMALL MOLECULE DISTRIBUTION USING TELLUROPHENE ANALOGUES” (THE GOVERNING COUNCIL OF THE UNIVERSITY OF TORONTO, priority 2022, published 2025).
Several values for one entry are separate records, joined by “and”; a condition that tells them apart may be missing. Identical values can stand only once. Like-named read-outs stand apart in the source and are kept apart here. One block for each molecule: values may come before it.

Columns and labels:
Jurkat cells [1] = test: Cell viability in Jurkat cells (WST-1); format: cell-based
Method: In Jurkat cells treated with increasing concentrations of TeCar 7b, a concentration-dependent reduction in overall cell viability was observed (Table 1). When compared to Carfilzomib, similar concentrations of 7b (Te-Car) were needed to produce a 50% reduction in Jurkat cell viability.
Jurkat cells (CRL-2899) were purchased from ATCC were maintained in Rosewell Park Memorial Institute (RPMI) media supplemented with 10% fetal bovine serum (FBS) and 1% penicillin/streptomycin in a humidified 37° C. incubator with 5% CO2 (g), and cultured as per ATCC guidelines in culture flasks purchased from Starstedt.
Jurkat cells, at a concentration of approximately 12 500 cells/mL, were seeded in a 96 well plate in complete media in dosed with increasing concentrations (0-200 nM) of Carfilzomib or 7b (100 ul final volume) and left to incubate for 44 hours. Each concentration was repeated in triplicate. 10 uL of WST-1 was then added to each well, and the plate was allowed to incubate for 2 hours before the absorbance at 440 nm was measured. Absorbance signal in 100 uL complete media+10 uL WST-1 was first subtracted from each well before plotting the absorbance signal vs log (concentration). The concentration needed to see a 50% reduction in absorbance signal was then determined using GraphPad Prism software.

Jurkat cells [2] = test: 7b and 8b incorporation into living Jurkat cells with or without Carfilzomib (CyTOF); format: cell-based; settings: 1 hour
Method: Co-dosing of cells with Te-Car 7b and Car lead to an approximately 50% reduction in Te labelling confirming the on-target labelling of modified compound (FIG. 10). This evidence supports that TeCar can be used to monitor Carfilzomib's target engagement in a more complex and disease-relevant samples.
Jurkat cells were seeded in […] plastic culture flasks at a concentration of approximately 5 million cells/mL for 24 hours prior to dosing. The cells were dosed with either Carfilzomib, 7b, or 8b at a final concentration of 500 nM, or a combination of Carfilzomib/7b (500 nM each), Carfilzomib/8b (500 nM each), or a DMSO control (final percentage of 0.5%) in complete media for 1 hour.
The media was then immediately removed, and the cells resuspended in 3 mL of cold phosphate-buffered saline (PBS), before being aliquoted into three 1 mL aliquots per each dosing regime. The samples were then prepped for CYTOF® analysis.
Briefly, each sample aliquot was washed three times with cold PBS (1 mL×3). The cells were then fixed, permeabilized, and stained with Cell-ID™ Intercalator-Ir stain in PBS (1 mL) for 1 hour at rt. […]
CYTOF® analysis was conducted the following day. […] The average ^128Te signal in the population of cells (events positive for 191 Ir and 193Ir signal) for each sample was determined.

PANC-1 cells = test: alamarBlue viability assay in PANC-1 cells; format: cell-based, Human; settings: maximum dose of 25 μM, 72 hours exposure
Method: Similarly, PANC1 cells were characterized for later in vivo experiments. Using an alamarBlue viability assay and a proliferative assay, PANC-1 cells were incubated with 1 or teniposide.
AlamarBlue assay: PANC-1 cells were seeded into black, clear-bottom 96-well assay plates (Corning; CLS3603) and incubated for 24 hours. The medium was replaced with […] of teniposide or compound 1. After 72 hours exposure to drug, alamarBlue (Thermo Fisher Scientific; DAL1100) cell viability reagent was added and incubated for 4 hours at 37° C. Fluorescence intensity was measured using an excitation wavelength of 560 nm and an emission of 590 nm. Cell viability was calculated by normalizing to an untreated control.

Top2 [3] = settings: fluorescence anisotropy and DNA relaxation gel assays; read-out: IC50 of teniposide in literature; cited from earlier work
pH2AX^Ser139 [4] = test: pH2AX immunohistochemistry of PANC-1 xenograft tumour sections; format: in vivo, mice; settings: 20 mg/kg IP, 2 hours
Method: PANC-1 xenograft-bearing mice were injected with either teniposide or the Te-teniposide analogue 1 IP. A dose of 20 mg/kg was selected based on literature reports detailing teniposide drug delivery strategies. After 2 hours, mice were sacrificed and tissues of interest were harvested, formalin fixed, and paraffin embedded. Tissue sections (5 um) were cut and mounted onto microscopy slides. The expression of pH2AX^Ser139 levels were first assessed by immunohistochemistry. Serial sections derived from PANC-1 xenograft tumours were stained with primary antibody and subsequently HRP-conjugated secondary antibody for standard brown staining. DSBs are indicated by large, discrete pH2AX^Ser139 foci. Representative images of immunostained slides show increased pH2AX^Ser139 levels in treated mice relative to saline injected control with clear, punctate staining (FIG. 7).

pH2AX^Ser139 [5] = test: pH2AX Western blotting in PANC-1 cells; format: cell-based, Human; settings: 1 μM, 24 and 48 hours
Method: Next, the ability of 1 to induce DSBs—the dominant type of DNA damage resulting from Top2 inhibition was investigated. In response to DSBs, a cascade of DNA repair mechanisms are triggered, including-phosphorylation of the histone variant H2AX at Ser139. Thus, the level of pH2AX^Ser139 serves as a reliable marker for Top2-linked DSBs. Western blotting was used to measure pH2AX^Ser139 in PANC-1 cells treated with 1 μM of either 1 or teniposide for 24 and 48 hours.
pH2AX Blotting: PANC-1 cells (0.5×10^6) cells were seeded in 60 mm plastic petri dishes (Corning Inc. NY) and incubated for 18 h. The spent medium is removed and replaced with fresh medium containing drug ([…]) and incubated for either 24 or 48h. Control cells were treated with DMSO only. The cells were then lysed with RIPA buffer (25 mM Tris·HCl PH 7.6, 150 mM NaCl, 1% NP-40, 1% sodium deoxycholate, 0.1% SDS) (ThermoFisher Scientific) containing Halt Protease Inhibitor Cocktail (Cat. No. 78410) and Halt Phosphatase Inhibitor Cocktail (Cat. No. 78420) as per manufacturer's protocol. […] Antibodies (Abcam, Cambridge, MA) targeting the following proteins were used H2AX (S139) (ab11174, polyclonal) and β-tubulin (ab6046, polyclonal).

HL-60 cells = test: WST-1 viability assay in HL-60 cells; format: cell-based; settings: Homo sapiens, HL-60; 24 hours, maximum concentration of 50 μM; read-out: inhibition of proliferation of HL-60 cells
Method: The toxicity of 1 was compared to teniposide in HL-60 cells after incubation for 24 hours using a WST-1 viability assay.
WST-1 metabolic cytotoxicity assay: HL-60 cells (ATCC® CCL-240TM) were maintained in DMEM media with 2 mM L-glutamine (Gibco) supplemented with 20% calf serum and 100× dilution of penicillin-streptomycin solution (Gibco). Cells were maintained at 37° C. in a humidified atmosphere of 5% CO2 in air. HL-60 cells (100 pL) were seeded into a 96 well clear at a density of 5×10^5 cells/mL. Cells were treated with either DMSO or appropriate inhibitor from DMSO stocks. […] Cells were incubated for 24 h at 37° C. under a 5% CO2 atmosphere. WST-1 reagent (10 pL; Roche Diagnostics, 05015944001) was added to each well and gently mixed by pipetting. Cells were incubated for 1 h at 37° C. under 5% CO2 atmosphere. UV-vis absorbance measurements of each well at 450 nm was recorded using a TECAN Safire 2 plate reader. Data was background corrected against wells that contained cell growth media without cells and WST-1. Experiment was performed in triplicate.

Top2 [6] = target: T1, Top2 (Homo sapiens, UniProt P11388); test: Top2 decatenation assay using kinetoplast DNA; format: biochemical; settings: 5, 10, 25 and 50 μM
T1 construct: purchased TopoGEN, Inc
Method: The relative Top2 inhibitory activity of 1 in comparison to teniposide was evaluated in decatenation assays using kinetoplast DNA (kDNA). Decatenation of the DNA, catalyzed by Top2, can be readily resolved using agarose gel electrophoresis.
Top2 decatenation assay: The assay was performed according to manufacturer's protocol (TopoGEN, Inc.). The total reaction volume was 20 μL of assay buffer (120 mM KCl, 50 mM Tris-HCl, 10 mM MgCl2, 0.5 mM DTT, 0.5 mM ATP, and 30 μg/mL BSA) and 120 ng of kinetoplast DNA (kDNA) substrate. One unit of TopoII enzyme in was added to reaction microfuge tubes in the presence or absence of inhibitor. The reaction was incubated for 30 min at 37° C. The reaction was stopped by addition of 5 μL of stop buffer (5% sarkosyl, 0.025% bromophenolblue, and 50% glycerol). The samples were then analyzed using electrophoresis using a 1% agarose gel in Tris-borate-EDTA buffer with 0.5 pg/mL ethidium bromide stain. Gels were imaged using Syngene G: Box Gel Imager (Chemi-XT4 GENESys software with preset for ethidium bromide stained agarose gels). Band intensities were analyzed using ImageJ software.

[7] = mice, depending on route of administration and dosing regimen; cited from earlier work

T1 sequence (P11388 whole entry): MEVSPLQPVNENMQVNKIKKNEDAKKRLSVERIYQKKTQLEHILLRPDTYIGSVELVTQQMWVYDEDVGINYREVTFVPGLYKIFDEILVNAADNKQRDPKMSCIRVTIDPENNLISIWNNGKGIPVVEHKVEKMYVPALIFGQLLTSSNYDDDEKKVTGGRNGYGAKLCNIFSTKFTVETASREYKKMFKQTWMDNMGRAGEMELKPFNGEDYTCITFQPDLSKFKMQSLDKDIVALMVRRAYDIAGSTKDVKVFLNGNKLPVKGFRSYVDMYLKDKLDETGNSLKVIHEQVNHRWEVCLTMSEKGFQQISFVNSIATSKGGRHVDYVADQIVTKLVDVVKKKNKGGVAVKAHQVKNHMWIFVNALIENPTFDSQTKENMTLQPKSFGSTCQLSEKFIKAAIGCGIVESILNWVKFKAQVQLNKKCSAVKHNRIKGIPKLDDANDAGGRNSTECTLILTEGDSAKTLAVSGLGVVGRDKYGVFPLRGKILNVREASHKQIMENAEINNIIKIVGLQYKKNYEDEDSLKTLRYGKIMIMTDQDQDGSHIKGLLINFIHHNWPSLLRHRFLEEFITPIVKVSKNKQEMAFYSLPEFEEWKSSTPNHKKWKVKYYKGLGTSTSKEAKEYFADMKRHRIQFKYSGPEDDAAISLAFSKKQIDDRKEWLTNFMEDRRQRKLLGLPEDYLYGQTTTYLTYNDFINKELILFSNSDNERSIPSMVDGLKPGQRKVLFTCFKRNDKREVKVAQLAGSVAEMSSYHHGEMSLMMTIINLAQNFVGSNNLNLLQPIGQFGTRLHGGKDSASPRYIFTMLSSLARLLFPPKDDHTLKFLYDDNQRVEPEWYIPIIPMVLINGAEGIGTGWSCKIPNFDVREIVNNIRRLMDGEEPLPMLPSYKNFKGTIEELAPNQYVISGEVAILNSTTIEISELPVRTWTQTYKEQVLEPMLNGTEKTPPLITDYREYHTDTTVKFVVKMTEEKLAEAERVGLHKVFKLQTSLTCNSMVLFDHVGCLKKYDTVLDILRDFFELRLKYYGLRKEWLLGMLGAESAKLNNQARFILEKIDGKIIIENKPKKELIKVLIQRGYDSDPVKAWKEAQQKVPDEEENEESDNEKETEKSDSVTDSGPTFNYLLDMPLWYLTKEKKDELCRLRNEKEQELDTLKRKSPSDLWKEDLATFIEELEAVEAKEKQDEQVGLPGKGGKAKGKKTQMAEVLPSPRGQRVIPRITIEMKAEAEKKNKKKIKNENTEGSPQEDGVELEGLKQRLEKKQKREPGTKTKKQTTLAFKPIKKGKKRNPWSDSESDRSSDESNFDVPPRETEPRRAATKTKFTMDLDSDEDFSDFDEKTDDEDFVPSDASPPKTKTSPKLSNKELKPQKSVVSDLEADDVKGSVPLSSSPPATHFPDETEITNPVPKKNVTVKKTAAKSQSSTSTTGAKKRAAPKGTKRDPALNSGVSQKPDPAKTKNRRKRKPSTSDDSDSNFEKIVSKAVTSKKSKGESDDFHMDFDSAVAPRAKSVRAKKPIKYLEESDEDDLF

Structure (SMILES): CC(C)C[C@H](NC(=O)[C@H](CCc1ccccc1)NC(=O)CN1CCOCC1)C(=O)N[C@@H](Cc1ccc[te]1)C(=O)N[C@@H](CC(C)C)C(=O)[C@@]1(C)CO1 (single isomer, unassigned) [7b]
IC50 (Jurkat cells [1]; Homo sapiens, Jurkat, 44 h, read-out: IC50, viability of Jurkat cells, Average +/− SD, 44 hours, WST-1, average of 3 biological replicates): 9.71 nM
IC50 (Jurkat cells [1]; Homo sapiens, Jurkat, 44 h, read-out: IC50, viability of Jurkat cells, single biological replicate, 44 hours, WST-1, Biol. Rep 1-3): 9.48 nM
IC50 (Jurkat cells [1]; read-out: IC50, viability of Jurkat cells, single biological replicate, 44 hours, WST-1, Biol. Rep 1-3): 9.87 nM and 9.78 nM
reduction in Te labelling on co-dosing with Carfilzomib (Jurkat cells [2]; 7b and Carfilzomib 500 nM each, ^128Te): approximately 50%
accumulation of tellurium within the cells (Jurkat cells [2]; mass cytometry): activity dependent accumulation

IC50 (Jurkat cells [1]; 44 hours, WST-1, Biol. Rep 1-3, read-out: IC50, viability of Jurkat cells, single biological replicate): 9.99 nM and 9.41 nM
IC50 (Jurkat cells [1]; Homo sapiens, Jurkat, 44 h, WST-1, Biol. Rep 1-3, read-out: IC50, viability of Jurkat cells, single biological replicate): 9.13 nM
IC50 (Jurkat cells [1]; Homo sapiens, Jurkat, 44 h, WST-1, average of 3 biological replicates, read-out: IC50, viability of Jurkat cells, Average +/− SD): 9.51 nM
Structure (SMILES): CC(C)C[C@H](NC(=O)[C@H](CCc1ccccc1)NC(=O)CN1CCOCC1)C(=O)N[C@@H](Cc1ccccc1)C(=O)N[C@@H](CC(C)C)C(=O)[C@@]1(C)CO1 [Carfilzomib, reference compound]

inhibition of the decatenation reaction (Top2 [6]): dose-dependent inhibition
Structure (SMILES): COc1cc([C@@H]2c3cc4c(cc3[C@@H](O[C@@H]3O[C@@H]5CO[C@@H](c6cccs6)O[C@H]5[C@H](O)[C@H]3O)[C@H]3COC(=O)[C@H]23)OCO4)cc(OC)c1O [teniposide, reference compound]
loss of cell viability in PANC-1 cells (PANC-1 cells): almost complete loss of cell viability
IC50 (Top2 [3]): 1300 to 9800 nM
pH2AX^Ser139 levels in tumour sections relative to saline injected control (pH2AX^Ser139 [4]): increased
levels of pH2AX^Ser139 relative to DMSO-treated control (pH2AX^Ser139 [5]): Increased levels
inhibition at 50 µM (HL-60 cells): ≤ 60%
half-life [7]: 1 to 5 h
